Our source for the Ki values is patent US7423054B2, “Therapeutic pyrazolo[3,4-b]pyridines and indazoles” (Warner Lambert Company LLC, priority 2004, dated 2008).

For assay [1], the target named is T1, human serotonin transporter (hSERT) (Homo sapiens, UniProt P31645).
T1 construct: expressed in transfected cells; host or cells: HEK-293 cells (membrane preparation)
Kind of assay: hSERT receptor binding ([125I]-RTI-55 displacement, membranes of transfected HEK-293 cells). The note with it: HEK-293 membranes, Ki from IC50 by Cheng-Prusoff, read-out: SERT Ki. How it is done:
(§1) The ability of the compounds of the present invention to inhibit a norepinephrine transporter and/or a serotonin transporter can be determined using conventional radioligand receptor transport assays. The receptors can be heterologously expressed in cell lines and experiments conducted in membrane preparations from the cell lines that express a norepinephrine transporter and/or a serotonin transporter.
Cell pastes of HEK-293 cells transfected with a human serotonin transporter cDNA were prepared. The cell pastes were resuspended in 400 to 700 ml of Krebs-HEPES assay buffer (25 mM HEPES, 122 mM NaCl, 3 mM KCl, 1.2 mM MgSO4, 1.3 mM CaCl2, and 11 mM glucose, pH 7.4) with a Polytron homogenizer at Setting 7 for 30 seconds. Aliquots of membranes (˜2.5 mg/ml protein) were stored in liquid nitrogen until used.
Assays were set up in FlashPlates pre-coated with 0.1% PEI in a total volume of 250 μl containing: test compound (10^−5M to 10^−12M), cell membranes, and 50 pM [^125I]-RTI-55 (Perkin Elmer, NEX-272; specific activity 2200 Ci/mmol). The reaction was incubated and gently agitated for 90 minutes at room temperature, and terminated by removal of assay volume. Plates were covered, and bound [^125I]-RTI-55 was determined using a Wallac Trilux Beta Plate Counter. Test compounds were run in duplicate, and specific binding was defined as the difference between binding in the presence and absence of 10 μM citalopram.
Excel and GraphPad Prism software were used for data calculation and analysis. IC50 values were converted to Ki values using the Cheng-Prusoff equation. The Ki values (nM) for the hSERT are reported below in Table 11: […]

In assay [2] the target is T2, human norepinephrine transporter (hNET) (Homo sapiens, UniProt P23975).
T2 construct: expressed in transfected cells; host or cells: HEK-293 cells (membrane preparation)
T2 sequence (P23975 whole entry): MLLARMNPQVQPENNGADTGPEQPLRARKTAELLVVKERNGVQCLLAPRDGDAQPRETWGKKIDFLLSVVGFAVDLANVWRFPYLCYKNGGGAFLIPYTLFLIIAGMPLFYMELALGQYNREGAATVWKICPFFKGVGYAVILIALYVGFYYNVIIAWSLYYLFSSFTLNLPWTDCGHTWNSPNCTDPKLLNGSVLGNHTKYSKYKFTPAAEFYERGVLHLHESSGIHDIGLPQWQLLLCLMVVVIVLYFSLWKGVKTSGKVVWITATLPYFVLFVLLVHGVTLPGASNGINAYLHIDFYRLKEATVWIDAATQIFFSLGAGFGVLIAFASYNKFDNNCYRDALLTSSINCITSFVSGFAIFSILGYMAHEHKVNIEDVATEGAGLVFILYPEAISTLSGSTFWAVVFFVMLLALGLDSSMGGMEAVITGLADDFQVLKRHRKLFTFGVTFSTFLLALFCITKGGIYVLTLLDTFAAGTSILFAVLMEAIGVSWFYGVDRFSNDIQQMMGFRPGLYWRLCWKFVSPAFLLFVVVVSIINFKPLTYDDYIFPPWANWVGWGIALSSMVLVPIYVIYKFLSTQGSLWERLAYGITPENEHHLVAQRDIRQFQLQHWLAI
Description: hNET receptor binding ([125I]-RTI-55 displacement, membranes of transfected HEK-293 cells). The note with it: HEK-293 membranes, Ki from IC50 by Cheng-Prusoff, read-out: NET Ki.
Excerpt: as §1
Cell pastes of HEK-293 cells transfected with a human norepinephrine transporter cDNA were prepared. The cell pastes were resuspended in 400 to 700 ml of Krebs-HEPES assay buffer (25 mM HEPES, 122 mM NaCl, 3 mM KCl, 1.2 mM MgSO4, 1.3 mM CaCl2, and 11 mM glucose, pH 7.4) with a Polytron homogenizer at setting 7 for 30 seconds. Aliquots of membranes (5 mg/ml protein) were stored in liquid nitrogen until used.
The binding assay was set up in Beckman deep-well polypropylene plates with a total volume of 250 μl containing: test compound (10^−5M to 10^−12M), cell membranes, and 50 pM [^125I]-RTI-55 (Perkin Elmer, NEX-272; specific activity 2200 Ci/mmol). The reaction was incubated by gentle agitation for 90 minutes at room temperature and was terminated by filtration through Whatman GF/C filter plates using a Brandel 96-well plate harvester. Scintillation fluid (100 μl) was added to each well, and bound [^125I]-RTI-55 was determined using a Wallac Trilux Beta Plate Counter. Test compounds were run in duplicate, and specific binding was defined as the difference between binding in the presence and absence of 10 μM desipramine.
Excel and GraphPad Prism software were used for data calculation and analysis. IC50 values were converted to Ki values using the Cheng-Prusoff equation. The Ki values (nM) for the hNET are reported below in Table 11.

Structures can show the parent of a compound that is named as a salt.

T1 sequence (P31645 whole entry): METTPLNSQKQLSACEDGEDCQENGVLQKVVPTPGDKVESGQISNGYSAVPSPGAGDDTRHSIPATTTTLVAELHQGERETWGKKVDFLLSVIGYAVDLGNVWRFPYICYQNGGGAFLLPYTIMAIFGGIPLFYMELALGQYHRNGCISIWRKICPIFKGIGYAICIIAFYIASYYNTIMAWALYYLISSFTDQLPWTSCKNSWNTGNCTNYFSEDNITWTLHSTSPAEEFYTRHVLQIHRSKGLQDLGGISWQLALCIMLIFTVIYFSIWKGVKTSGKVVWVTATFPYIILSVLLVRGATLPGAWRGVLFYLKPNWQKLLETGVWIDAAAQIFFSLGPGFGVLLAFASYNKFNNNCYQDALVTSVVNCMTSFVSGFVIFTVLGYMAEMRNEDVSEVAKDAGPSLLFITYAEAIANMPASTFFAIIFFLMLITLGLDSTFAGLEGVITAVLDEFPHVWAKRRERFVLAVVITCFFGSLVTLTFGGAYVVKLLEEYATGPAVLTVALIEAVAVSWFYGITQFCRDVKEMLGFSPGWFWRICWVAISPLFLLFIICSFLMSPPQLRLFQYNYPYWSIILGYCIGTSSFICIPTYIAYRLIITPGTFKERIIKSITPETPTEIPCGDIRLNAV

Usually Ki stands for the dissociation constant of the complex between target and ligand, obtained from inhibition or displacement. Regarding `Fc1cccc(-n2nc(OC3CCNCC3)c3cc(F)ccc32)c1` [Example 77, 5-Fluoro-1-(3-fluoro-phenyl)-3-(piperidin-4-yloxy)-1H-indazole hydrochloride], the inhibitory constant (Ki) is 49.5 nM in assay [1] and 24.8 nM in assay [2].
As to `Fc1cccc(-n2nc(OC[C@H]3CCCNC3)c3cc(F)ccc32)c1` [Example 78, (S)-5-Fluoro-1-(3-fluoro-phenyl)-3-(piperidin-3-ylmethoxy)-1H-indazole hydrochloride], the values for the inhibition constant Ki in assay [1] and in assay [2] were 39.9 nM and 10.2 nM, respectively.
As for `Fc1ccc(-n2nc(OC3CCNCC3)c3cc(F)ccc32)cc1` [Example 79, 5-Fluoro-1-(4-fluoro-phenyl)-3-(piperidin-4-yloxy)-1H-indazole hydrochloride], the inhibition constant (Ki) in assay [1] was found to be 23.7 nM; in assay [2], 32.8 nM.
As to `Fc1ccc(-n2nc(OC[C@H]3CCCNC3)c3cc(F)ccc32)cc1` [Example 80, (S)-5-Fluoro-1-(4-fluoro-phenyl)-3-(piperidin-3-ylmethoxy)-1H-indazole hydrochloride], the values for the Ki in assay [1] and in assay [2] were 23.9 nM and 15 nM, respectively.
With `Fc1cccc(-n2nc(OC3CCNCC3)c3c(F)cccc32)c1` [Example 81, 4-Fluoro-1(3-fluoro-phenyl)-3-(piperidin-4-yloxy)-1H-indazole hydrochloride], the Ki worked out at 449 nM in assay [1] and 49.8 nM in assay [2].
Turning to `Fc1cccc(-n2nc(OC[C@H]3CCCNC3)c3c(F)cccc32)c1` [Example 82, (S)-4-Fluoro-1-(3-fluoro-phenyl)-3-(piperidin-3-ylmethoxy)-1H-indazole hydrochloride], the values for the Ki in assay [1] and in assay [2] were 635 nM and 23.2 nM, respectively.
As to `Fc1ccc(-n2nc(OC3CCNCC3)c3c(F)cccc32)cc1` [Example 83, 4-Fluoro-1-(4-fluoro-phenyl)-3-(piperidin-4-yloxy)-1H-indazole hydrochloride], the values for the Ki in assay [1] and in assay [2] were 191 nM and 49.3 nM, respectively.
Take `Fc1ccc(-n2nc(OC[C@H]3CCCNC3)c3c(F)cccc32)cc1` [Example 84, (S)-4-Fluoro-1-(4-fluoro-phenyl)-3-(piperidin-3-ylmethoxy)-1H-indazole hydrochloride]: the inhibitory constant (Ki) in assay [1] worked out at 487 nM; in assay [2] it was 38.1 nM.
Turning to `Fc1ccccc1-n1nc(OC[C@H]2CCCNC2)c2c(F)cccc21` [Example 85, (S)-4-Fluoro-1-(2-fluoro-phenyl)-3-(piperidin-3-ylmethoxy)-1H-indazole hydrochloride], the Ki came to 1010 nM in assay [1] and 12.5 nM in assay [2].
With `Fc1cc2c(OCC3CCCNC3)nn(-c3ccccc3)c2cc1F` (centres unmarked) [Example 86, 5,6-Difluoro-1-phenyl-3-(piperidin-3-ylmethoxy)-1H-indazole hydrochloride], the Ki was determined as 101 nM in assay [1] and 114 nM in assay [2].
As to `Fc1cc2c(OC3CCNCC3)nn(-c3ccccc3)c2cc1F` [Example 87, 5,6-Difluoro-1-phenyl-3-(piperidin-4-yloxy)-1H-indazole hydrochloride], the Ki in assay [1] was determined as 57 nM; in assay [2] it was 197 nM.
Taken in the same sequence, the figures for `Fc1ccc(-n2nc(OC3CCNCC3)c3c(F)cccc32)c(F)c1` [Example 88, 1-(2,4-Difluoro-phenyl)-4-fluoro-3-(piperidin-4-yloxy)-1H-indazole hydrochloride] were 88.1 nM and 16.3 nM.
For `Fc1ccc(-n2nc(OC[C@H]3CCCNC3)c3c(F)cccc32)c(F)c1` [Example 89, (S)-1-(2,4-Difluoro-phenyl)-4-fluoro-3-(piperidin-3-ylmethoxy)-1H-indazole hydrochloride], the values for the Ki in assay [1] and in assay [2] were 403 nM and 22.4 nM, respectively.
With `Fc1ccc(F)c(-n2nc(OC3CCNCC3)c3c(F)cccc32)c1` [Example 90, 1-(2,5-Difluoro-phenyl)-4-fluoro-3-(piperidin-4-yloxy)-1H-indazole hydrochloride], the results for the Ki in assay [1] and in assay [2] were 142 nM and 10.2 nM, respectively.
With `Fc1ccc(F)c(-n2nc(OC[C@H]3CCCNC3)c3c(F)cccc32)c1` [Example 91, (S)-1-(2,5-Difluoro-phenyl)-4-fluoro-3-(piperidin-3-ylmethoxy)-1H-indazole hydrochloride], the Ki in assay [1] was 610 nM; in assay [2], 7.88 nM.
For `Fc1ccc(-n2nc(OC[C@@H]3CCNC3)c3c(F)cccc32)c(F)c1` [Example 92, (R)-1-(2,4-Difluoro-phenyl)-4-fluoro-3-(pyrrolidin-3-ylmethoxy)-1H-indazole hydrochloride], the inhibitory constant (Ki) was 126 nM in assay [1] and 28.5 nM in assay [2].
Regarding `Fc1ccc(F)c(-n2nc(OC[C@@H]3CCNC3)c3c(F)cccc32)c1` [Example 93, (R)-1-(2,5-Difluoro-phenyl)-4-fluoro-3-(pyrrolidin-3-ylmethoxy)-1H-indazole hydrochloride], the Ki was 224 nM in assay [1] and 16.4 nM in assay [2].
As for `Fc1ccc(-n2nc(OC[C@@H]3CNCCO3)c3c(F)cccc32)c(F)c1` [Example 94, (S)-1-(2,4-Difluoro-phenyl)-4-fluoro-3-(morpholin-2-ylmethoxy)-1H-indazole hydrochloride], the values for the Ki in assay [1] and in assay [2] were 2850 nM and 40.2 nM, respectively.
Taken in the same sequence, the figures for `Fc1ccc(F)c(-n2nc(OC[C@@H]3CNCCO3)c3c(F)cccc32)c1` [Example 95, (S)-1-(2,5-Difluoro-phenyl)-4-fluoro-3-(morpholin-2-ylmethoxy)-1H-indazole hydrochloride] were 3470 nM and 5.47 nM.
With `Fc1ccc2c(c1)c(OC1CCNCC1)nn2-c1ccc(F)c(F)c1` [Example 97, 1-(3,4-Difluoro-phenyl)-5-fluoro-3-(piperidin-4-yloxy)-1H-indazole hydrochloride], the Ki in assay [1] was determined as 39.5 nM; in assay [2] it was 28.5 nM.
Taken in the same sequence, the figures for `Fc1ccccc1-n1nc(OC[C@@H]2CNCCO2)c2c(F)cccc21` [Example 98, (S)-(+)-4-Fluoro-1-(2-fluorophenyl)-3-(morpholin-2-ylmethoxy)-1H-indazole maleate] were 3860 nM and 27.3 nM.
Taken in the same sequence, the figures for `Fc1ccc2c(c1)c(OCC1CCCNC1)nn2-c1ccccn1` (centres unmarked) [Example 99, 5-Fluoro-3-(piperidin-3-ylmethoxy)-1-pyridin-2-yl-1H-indazole hydrochloride] were 259 nM and 319 nM.
As to `Clc1ccc2c(c1)c(OC1CCNCC1)nn2-c1ccccc1` [Example 101, 5-Chloro-1-phenyl-3-(piperidin-4-yloxy)-1H-indazole hydrochloride], the results for the Ki in assay [1] and in assay [2] were 304 nM and 607 nM, respectively.
Taken in the same sequence, the figures for `Fc1ccccc1-n1nc(OC2CCNCC2)c2cc(Cl)ccc21` [Example 102, 5-Chloro-1-(2-fluoro-phenyl)-3-(piperidin-4-yloxy)-1H-indazole hydrochloride] were 129 nM and 71.5 nM.
As for `Fc1cccc2c1c(OC1CCNCC1)nn2-c1ccccc1` [Example 103, 4-Fluoro-1-phenyl-3-(piperidin-4-yloxy)-1H-indazole hydrochloride], the Ki in assay [1] came to 293 nM; in assay [2], 34.1 nM.
For `c1ccc(-n2nc(OC[C@H]3CCCNC3)c3cccnc32)cc1` [Example 104, (S)-(−)-1-Phenyl-3-(piperidin-3-ylmethoxy)-1H-pyrazolo[3,4-b]pyridine hydrochloride], the results for the Ki in assay [1] and in assay [2] were 1580 nM and 89 nM, respectively.
Taken in the same sequence, the figures for `c1ccc(-n2nc(OC[C@@H]3CNCCO3)c3cccnc32)cc1` [Example 105, (S)-(+)-3-(Morpholin-2-ylmethoxy)-1-phenyl-1H-pyrazolo[3,4-b]pyridine hydrochloride] were 4240 nM and 294 nM.
Regarding `Fc1ccc2c(c1)c(OC1CCNCC1)nn2-c1c(F)cccc1F` [Example 108, 1-(2,6-Difluoro-phenyl)-5-fluoro-3-(piperidin-4-yloxy)-1H-indazole hydrochloride], the values for the Ki in assay [1] and in assay [2] were 43 nM and 5.72 nM, respectively.
